Non-standard residues stand in square brackets, D forms with d. Residues, ends and D or L forms follow the SMILES beside them. *: point of attachment. Phenylacetyl(2,3,4,5,6-F5) = O=C(Cc1c(F)c(F)c(F)c(F)c1F)*; Phe(4-Cl) = N[C@@H](Cc1ccc(Cl)cc1)C(=O)O; hArg = N=C(N)NCCCC[C@H](N)C(=O)O; 12Ado = NCCCCCCCCCCCC(=O)O; Nle = CCCC[C@H](N)C(=O)O; Orn = NCCC[C@H](N)C(=O)O; Abu = CC[C@H](N)C(=O)O; PhAc = O=C(Cc1ccccc1)*; Aoc = NCCCCCCCC(=O)O
Experiments:
Type in all cases: cell-based, human
Conditions in all cases: 5 μM, 72 h; relative to MIA602 = 1; Table 3A
KATOIII cells = assay: In vitro cell viability, stomach cancer KATOIII
Experimental: (§1) The inhibitory effects of the various synthesized GHRH antagonists were tested in cell proliferation assays in various human cancer cell lines including stomach cancer (KATOIII, N87), colon cancer (HT-29), urothelial cancer (J82, RT4), pancreatic cancer (PANC-1, CFPAC-1), prostatic cancer (PC3), breast cancer (MX-1, HCC1806), ovarian cancer (SK-OV-3, OVCAR-3) and lung cancer (HCC827, H460).
(§2) Cell culture. Human cancer cell lines including pancreatic (PANC-1 and CFPAC-1), lung (HCC827 and H460), stomach (NCI-N87 and KATOIII), urothelial (J82, RT4), prostatic (PC3), breast (MX-1 and HCC 1806), colorectal (HT-29), and ovarian (SK-OV-3 and OVCAR-3) were obtained from the American Type Culture Collection (ATCC) and cultured at 37° C. in a humidified 95% air/5% CO2 atmosphere in the medium recommended by ATCC.
(§3) In vitro cell viability. Cell viability was analyzed as follows: cancer cells including pancreatic (PANC-1 and CFPAC-1), lung (HCC827 and H460), stomach (NCI-N87 and KATOIII), urothelial (J82, RT4), prostatic (PC3) and breast (MX-1 and HCC 1806), colorectal (HT-29) and ovarian (SK-OV-3 and OVCAR-3) were grown on 96 well plates to ˜60% confluence, the cells were starved for 24 h in culture medium containing 0.5% FBS. Cells were then treated with GHRH antagonists MIA602 AVR compounds at concentrations of 1, 2.5 or 5 μM, or vehicle (0.1% DMSO) in quintuplicates for 72 hours. The medium was replaced every 48 hours. Cell viability was measured using CellTiter 96 aqueous one solution kit (Promega). Inhibitory effects of tested AVR compounds in comparison to that of MIA602 are presented as inhibitory potency.
(§4) Inhibitory effects of selected AVR compounds in comparison to that of MIA602 are presented as inhibitory potency (e.g., percentage of inhibition). […] The cell lines tested including lung cancer HCC827 (FIG. 2A), pancreatic cancer CFPAC-1 (FIG. 2B), stomach cancer N87 (FIG. 2C), colon cancer HT-29 (FIG. 2D), breast cancers MX-1 and HCC1806 (FIGS. 2E, F). Based on the results of cell proliferation assay after cancer cells were treated with antagonist at concentration of 5 μM for 72H, the relative inhibitory potency of AVR antagonists in comparison to MIA-602 is summarized in Table 3 A and B. Over 60 AVR compounds were tested in 12 cancer cell lines.

HCC827 cells = assay: In vitro cell viability, lung cancer HCC827
Experimental: as §1, §2, §3, §4
(§5) Based on the results of cell proliferation assay after cancer cells were treated with antagonist at concentration of 5 µM for 72H, * at concentration of 2 µM for 72 H.

CFPAC-1 cells = assay: In vitro cell viability, pancreatic cancer CFPAC-1
Experimental: as §1, §2, §3, §4, §5

| Compound | Relative inhibitory potency, Stomach KATOIII (KATOIII cells) | Relative inhibitory potency, Lung HCC827 (HCC827 cells) | Relative inhibitory potency, Pancreatic CFPAC-1 (CFPAC-1 cells) |
| --- | --- | --- | --- |
| CCCC[C@H](NC(=O)[C@@H](NC(=O)[C@H](CC(=O)O)NC(=O)[C@H](CCC(N)=O)NC(=O)[C@H](CC(C)C)NC(=O)[C@H](CC(C)C)NC(=O)[C@H](CCCCN)NC(=O)[C@H](CCCNC(=N)N)NC(=O)[C@H](C)NC(=O)[C@H](CO)NC(=O)[C@H](CC(C)C)NC(=O)[C@H](CCC(N)=O)NC(=O)[C@H](CC)NC(=O)[C@H](CC(C)C)NC(=O)[C@@H](NC(=O)[C@H](CCCCN)NC(=O)[C@H](CCCNC(=N)N)NC(=O)[C@H](Cc1ccc(OC)cc1)NC(=O)[C@H](CCCNC(=N)N)NC(=O)[C@H](CC(N)=O)NC(=O)[C@@H](NC(=O)[C@H](Cc1ccc(Cl)cc1)NC(=O)[C@@H](NC(=O)[C@H](C)NC(=O)[C@H](CC(=O)O)NC(=O)[C@@H](CCCNC(=N)N)NC(=O)[C@H](Cc1ccc(O)cc1)NC(=O)CCCCCCCCCCCNC(=O)Cc1ccccc1)[C@@H](C)CC)[C@@H](C)O)C(C)C)[C@@H](C)CC)C(=O)N[C@H](CCCNC(=N)N)C(=O)N[C@@H](CCCCNC(=N)N)C(=O)NC [AVR-234, PhAC-Ada-Tyr-DArg-Asp-Ala-Ile-Cpa-Thr-Asn-Arg-Tyr(Me)-Arg-Lys-Val-Leu-Abu-Gln-Leu-Ser-Ala-Arg-Lys-Leu-Leu-Gln-Asp-Ile-Nle-DArg-Har-NHCH3] ({PhAc-12Ado}-Y[dR]DAI[Phe(4-Cl)]TNRY(Me)RKVL[Abu]QLSARKLLQDI[Nle][dR][hArg]-NHMe) | 1.709 | 4.510 | 2.205 |
| CCCC[C@H](NC(=O)[C@@H](NC(=O)[C@H](CC(=O)O)NC(=O)[C@H](CCC(N)=O)NC(=O)[C@H](CC(C)C)NC(=O)[C@H](CC(C)C)NC(=O)[C@H](CCCCN)NC(=O)[C@H](CCCNC(=N)N)NC(=O)[C@H](C)NC(=O)[C@H](CO)NC(=O)[C@H](CC(C)C)NC(=O)[C@H](CCC(N)=O)NC(=O)[C@H](CC)NC(=O)[C@H](CC(C)C)NC(=O)[C@@H](NC(=O)[C@H](CCCCN)NC(=O)[C@H](CCCNC(=N)N)NC(=O)[C@H](Cc1ccc(OC)cc1)NC(=O)[C@H](CCCCNC(=N)N)NC(=O)[C@H](CC(N)=O)NC(=O)[C@@H](NC(=O)[C@H](Cc1ccc(Cl)cc1)NC(=O)[C@@H](NC(=O)[C@H](C)NC(=O)[C@H](CC(=O)O)NC(=O)[C@@H](CCCNC(=N)N)NC(=O)[C@H](Cc1ccc(O)cc1)NC(=O)CCCCCCCCCCCNC(=O)Cc1ccccc1)[C@@H](C)CC)[C@@H](C)O)C(C)C)[C@@H](C)CC)C(=O)N[C@H](CCCNC(=N)N)C(=O)N[C@@H](CCCCNC(=N)N)C(=O)NCCCCCCCC(=O)NC [AVR-321, PhAC-Ada-Tyr-DArg-Asp-Ala-Ile-Cpa-Thr-Asn-Har-Tyr(Me)-Arg-Lys-Val-Leu-Abu-Gln-Leu-Ser-Ala-Arg-Lys-Leu-Leu-Gln-Asp-Ile-Nle-DArg-Har-Aoc-NHCH3] ({PhAc-12Ado}-Y[dR]DAI[Phe(4-Cl)]TN[hArg]Y(Me)RKVL[Abu]QLSARKLLQDI[Nle][dR][hArg][Aoc]-NHMe) | 1.414 | – | – |
| CCCC[C@H](NC(=O)[C@@H](NC(=O)[C@H](CC(=O)O)NC(=O)[C@H](CCC(N)=O)NC(=O)[C@H](CC(C)C)NC(=O)[C@H](CC(C)C)NC(=O)[C@H](CCCCN)NC(=O)[C@H](CCCNC(=N)N)NC(=O)[C@H](C)NC(=O)[C@H](CO)NC(=O)[C@H](CC(C)C)NC(=O)[C@H](CCC(N)=O)NC(=O)[C@H](CC)NC(=O)[C@H](CC(C)C)NC(=O)[C@@H](NC(=O)[C@H](CCCCN)NC(=O)[C@H](CCCNC(=N)N)NC(=O)[C@H](Cc1ccc(OC)cc1)NC(=O)[C@H](CCCCNC(=N)N)NC(=O)[C@H](CC(N)=O)NC(=O)[C@@H](NC(=O)[C@H](Cc1ccc(Cl)cc1)NC(=O)[C@@H](NC(=O)[C@H](C)NC(=O)[C@H](CC(=O)O)NC(=O)[C@@H](CCCNC(=N)N)NC(=O)[C@H](Cc1ccc(O)cc1)NC(=O)CCCCCCCCCCCNC(=O)Cc1c(F)c(F)c(F)c(F)c1F)[C@@H](C)CC)[C@@H](C)O)C(C)C)[C@@H](C)CC)C(=O)N[C@H](CCCNC(=N)N)C(=O)N[C@@H](CCCCNC(=N)N)C(=O)NCCCCCCCC(=O)NC [AVR-322, 5FPhAC-Ada-Tyr-DArg-Asp-Ala-Ile-Cpa-Thr-Asn-Har-Tyr(Me)-Arg-Lys-Val-Leu-Abu-Gln-Leu-Ser-Ala-Arg-Lys-Leu-Leu-Gln-Asp-Ile-Nle-DArg-Har-Aoc-NHCH3] ({Phenylacetyl(2,3,4,5,6-F5)-12Ado}-Y[dR]DAI[Phe(4-Cl)]TN[hArg]Y(Me)RKVL[Abu]QLSARKLLQDI[Nle][dR][hArg][Aoc]-NHMe) | 1.296 | – | – |
| CCCC[C@H](NC(=O)[C@@H](NC(=O)[C@H](CC(=O)O)NC(=O)[C@H](CCC(N)=O)NC(=O)[C@H](CC(C)C)NC(=O)[C@H](CC(C)C)NC(=O)[C@H](CCCCN)NC(=O)[C@H](CCCNC(=N)N)NC(=O)[C@H](C)NC(=O)[C@H](CO)NC(=O)[C@H](CC(C)C)NC(=O)[C@H](CCC(N)=O)NC(=O)[C@H](CC)NC(=O)[C@H](CC(C)C)NC(=O)[C@@H](NC(=O)[C@H](CCCCN)NC(=O)[C@H](CCCNC(=N)N)NC(=O)[C@H](Cc1ccc(OC)cc1)NC(=O)[C@H](CCCCNC(=N)N)NC(=O)[C@H](CC(N)=O)NC(=O)[C@@H](NC(=O)[C@H](Cc1ccc(Cl)cc1)NC(=O)[C@@H](NC(=O)[C@H](C)NC(=O)[C@H](CC(=O)O)NC(=O)[C@@H](CCCNC(=N)N)NC(=O)[C@H](Cc1ccc(O)cc1)NC(=O)CCCCCCCCCCCNC(=O)Cc1ccccc1)[C@@H](C)CC)[C@@H](C)O)C(C)C)[C@@H](C)CC)C(=O)N[C@H](CCCNC(=N)N)C(=O)N[C@@H](CCCCNC(=N)N)C(=O)NCCCCCCCCCCCC(N)=O [AVR-332] ({PhAc-12Ado}-Y[dR]DAI[Phe(4-Cl)]TN[hArg]Y(Me)RKVL[Abu]QLSARKLLQDI[Nle][dR][hArg][12Ado]-NH2) | 1.643 | – | – |
| CCCC[C@H](NC(=O)[C@@H](NC(=O)[C@H](CC(=O)O)NC(=O)[C@H](CCC(N)=O)NC(=O)[C@H](CC(C)C)NC(=O)[C@H](CC(C)C)NC(=O)[C@H](CCCN)NC(=O)[C@H](Cc1c[nH]cn1)NC(=O)[C@H](C)NC(=O)[C@H](CO)NC(=O)[C@H](CC(C)C)NC(=O)[C@H](CCC(N)=O)NC(=O)[C@H](CC)NC(=O)[C@H](CC(C)C)NC(=O)[C@@H](NC(=O)[C@H](CCCCN)NC(=O)[C@H](CCCNC(=N)N)NC(=O)[C@H](Cc1ccc(OC)cc1)NC(=O)[C@H](CCCNC(=N)N)NC(=O)[C@H](CC(N)=O)NC(=O)[C@@H](NC(=O)[C@H](Cc1ccc(Cl)cc1)NC(=O)[C@@H](NC(=O)[C@H](C)NC(=O)[C@H](CC(=O)O)NC(=O)[C@@H](CCCNC(=N)N)NC(=O)[C@H](Cc1ccc(O)cc1)NC(=O)CCCCCCCCCCCNC(=O)Cc1c(F)c(F)c(F)c(F)c1F)[C@@H](C)CC)[C@@H](C)O)C(C)C)[C@@H](C)CC)C(=O)N[C@H](CCCNC(=N)N)C(=O)N[C@@H](CCCCNC(=N)N)C(=O)NCCCCCCCCCCCC(N)=O [AVR-620, 5FPhAC-Ada-Tyr-DArg-Asp-Ala-Ile-Cpa-Thr-Asn-Arg-Tyr(Me)-Arg-Lys-Val-Leu-Abu-Gln-Leu-Ser-Ala-His-Orn-Leu-Leu-Gln-Asp-Ile-Nle-DArg-Har-Ada-NH2] ({Phenylacetyl(2,3,4,5,6-F5)-12Ado}-Y[dR]DAI[Phe(4-Cl)]TNRY(Me)RKVL[Abu]QLSAH[Orn]LLQDI[Nle][dR][hArg][12Ado]-NH2) | 1.769 | 3.753 | 1.567 |

Source: patent publication US11993640B2, “Treating inflammatory lung disease” (United States Government as represented by the Department …, priority 2019, dated 2024)
